Literature values in patent publication EP4623708A1, “SWEETENER COMPOSITION FOR POUCHED ORAL PRODUCTS” (Nicoventures Trading Limited, priority 2024, dated 2025).

Legend:
[1] = relative to sugar

solubility in water	Compound	times sweeter than sugar [1]
water-soluble	CC(/C=C/C=C(C)/C=C/C(=O)O)=C\C=C\C=C(C)\C=C\C=C(C)\C=C\C(=O)O (stereo in doubt) [norbixin, (2E,4E,6E,8E,10E,12E,14E,16E,18E)-4,8,13,17-tetramethylicosa-2,4,6,8,10,12,14,16,18-nonaenedioic acid]	
	OC[C@H]1O[C@H](O[C@]2(CCl)O[C@H](CCl)[C@@H](O)[C@@H]2O)[C@H](O)[C@@H](O)[C@H]1Cl [Sucralose, trichlorogalatosucrose]	about 600 times
insoluble in water	COC(=O)/C=C/C(C)=C\C=C\C(C)=C\C=C\C=C(C)\C=C\C=C(C)\C=C\C(=O)O [bixin, (2E,4E,6E,8E,10E,12E,14E,16Z,18E)-20-methoxy-4,8,13,17-tetramethyl-20-oxoicosa-2,4,6,8,10,12,14,16,18-nonaenoic acid]	
